Molecular target: T1, SHIP2 enzyme (Homo sapiens, UniProt O15357)
T1 construct: purchased Echelon Biosciences (Salt Lake City, Utah)
T1 sequence (O15357 1-1258): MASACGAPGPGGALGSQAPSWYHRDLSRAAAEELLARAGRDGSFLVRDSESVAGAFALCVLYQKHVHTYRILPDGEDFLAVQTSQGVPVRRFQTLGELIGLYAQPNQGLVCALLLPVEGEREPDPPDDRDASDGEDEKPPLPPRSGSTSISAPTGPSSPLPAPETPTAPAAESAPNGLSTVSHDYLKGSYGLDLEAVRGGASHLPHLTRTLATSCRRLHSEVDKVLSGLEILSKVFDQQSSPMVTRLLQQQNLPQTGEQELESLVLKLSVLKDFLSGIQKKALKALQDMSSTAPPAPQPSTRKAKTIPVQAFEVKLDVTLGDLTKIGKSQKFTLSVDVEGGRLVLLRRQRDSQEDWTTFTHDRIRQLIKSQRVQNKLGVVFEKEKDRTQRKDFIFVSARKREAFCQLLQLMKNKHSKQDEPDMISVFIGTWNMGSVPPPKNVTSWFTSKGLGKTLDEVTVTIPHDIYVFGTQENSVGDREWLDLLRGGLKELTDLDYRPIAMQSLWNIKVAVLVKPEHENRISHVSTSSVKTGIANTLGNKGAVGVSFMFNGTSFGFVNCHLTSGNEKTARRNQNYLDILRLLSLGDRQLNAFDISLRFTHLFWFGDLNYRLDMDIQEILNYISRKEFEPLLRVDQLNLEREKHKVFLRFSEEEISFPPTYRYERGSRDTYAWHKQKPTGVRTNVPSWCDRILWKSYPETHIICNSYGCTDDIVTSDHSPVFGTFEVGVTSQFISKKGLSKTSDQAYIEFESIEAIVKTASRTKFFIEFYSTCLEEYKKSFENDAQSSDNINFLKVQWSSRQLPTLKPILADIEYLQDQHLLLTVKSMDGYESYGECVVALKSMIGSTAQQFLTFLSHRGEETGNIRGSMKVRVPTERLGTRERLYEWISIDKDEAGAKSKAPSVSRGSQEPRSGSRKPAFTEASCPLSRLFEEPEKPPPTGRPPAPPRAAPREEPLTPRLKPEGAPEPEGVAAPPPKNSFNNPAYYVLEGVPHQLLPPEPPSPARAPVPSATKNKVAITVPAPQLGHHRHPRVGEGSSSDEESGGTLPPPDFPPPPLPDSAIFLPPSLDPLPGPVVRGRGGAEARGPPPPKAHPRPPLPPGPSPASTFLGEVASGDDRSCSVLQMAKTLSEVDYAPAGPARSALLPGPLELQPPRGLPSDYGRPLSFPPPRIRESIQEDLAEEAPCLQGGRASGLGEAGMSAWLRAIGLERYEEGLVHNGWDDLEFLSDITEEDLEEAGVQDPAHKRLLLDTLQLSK
Assay: In vitro SHIP enzyme assay, SHIP2
Assay type: biochemical
Settings: FIG. 1B
Experimental: In vitro SHIP enzyme assay. The SHIP enzyme assay was performed in 96-well microtitre plates with 10 ng of enzyme/well in a total volume of 25 μL of 20 mM Tris HCl, pH 7.5 and 10 mM MgCl2. SHIP1 enzyme was incubated with test extracts (provided in DMSO) or vehicle for 15 mM at 23° C. before the addition of 100 μM inositol-1,3,4,5-tetrakisphosphate (Echelon Biosciences Inc, Salt Lake City, Utah). The reaction was allowed to proceed for 20 min at 37° C. and the amount of inorganic phosphate released assessed by the addition of Malachite Green reagent followed by an absorbance measurement at 650 nm (15). SHIP2 enzyme was purchased from Echelon Biosciences (Salt Lake City, Utah) and an equivalent amount of inositol phosphatase activity was used in the in vitro enzyme assay. Enzyme data are expressed as the mean of triplicates+/−SEM. Experiments were performed at least 3 times.

## Cc1cc(O)c(O)c2c1[C@]1(C)CC[C@H]3C(C)(C)CCC[C@]3(C)[C@H]1C2 [AQX-016A]
  activation of SHIP1 versus SHIP2: preferentially activates SHIP1 over SHIP2

From patent US8956824B2, “Methods for identifying allosteric modulators of ship polypeptides” (British Columbia Cancer Agency Branch, priority 2006, dated 2015)
